Results reported in the NIST ThermoML archive (doi:10.1021/je5009679).
± gives the expanded uncertainty stated by the source.

Details: Liquid; for viscosity: Concentric cylinders viscometry

CCCC[n+]1ccn(C)c1.O=S(=O)([N-]S(=O)(=O)C(F)(F)F)C(F)(F)F
101.33 kPa
Details | viscosity [mPa·s]
293.15 K | 63.41 ± 3
303.15 K | 41.26 ± 1.9
313.15 K | 28.46 ± 1.3
323.15 K | 20.58 ± 0.96
333.15 K | 15.47 ± 0.72
343.15 K | 12 ± 0.56
353.15 K | 9.562 ± 0.45
363.15 K | 7.788 ± 0.36
373.15 K | 6.469 ± 0.3

Details | mass density [kg/m3]
293.15 K, 101.33 kPa, Vibrating tube method | 1440.9 ± 1.3
303.15 K, 101.33 kPa, Vibrating tube method | 1431.6 ± 1.3
311.8 K, 10000 kPa, Bellows volumetry | 1430.7 ± 1.8
311.8 K, 20000 kPa, Bellows volumetry | 1437.5 ± 1.8
311.8 K, 30000 kPa, Bellows volumetry | 1444.6 ± 1.8
311.8 K, 40000 kPa, Bellows volumetry | 1451.2 ± 1.8
311.8 K, 50000 kPa, Bellows volumetry | 1457.5 ± 1.8
311.8 K, 60000 kPa, Bellows volumetry | 1463.6 ± 1.8
311.8 K, 70000 kPa, Bellows volumetry | 1469.5 ± 1.8
311.8 K, 80000 kPa, Bellows volumetry | 1475.2 ± 1.8
311.8 K, 90000 kPa, Bellows volumetry | 1480.5 ± 1.8
311.8 K, 100000 kPa, Bellows volumetry | 1485.7 ± 1.8
311.8 K, 110000 kPa, Bellows volumetry | 1490.9 ± 1.8
311.8 K, 120000 kPa, Bellows volumetry | 1496 ± 1.8
311.8 K, 130000 kPa, Bellows volumetry | 1500.9 ± 1.8
311.8 K, 140000 kPa, Bellows volumetry | 1505.6 ± 1.8
311.8 K, 150000 kPa, Bellows volumetry | 1510.2 ± 1.8
311.8 K, 160000 kPa, Bellows volumetry | 1514.8 ± 1.8
311.8 K, 170000 kPa, Bellows volumetry | 1519.3 ± 1.8
311.8 K, 180000 kPa, Bellows volumetry | 1523.5 ± 1.8
311.8 K, 190000 kPa, Bellows volumetry | 1527.7 ± 1.8
311.8 K, 200000 kPa, Bellows volumetry | 1531.8 ± 1.8
313.15 K, 101.33 kPa, Vibrating tube method | 1422.1 ± 1.3
323.15 K, 101.33 kPa, Vibrating tube method | 1412.6 ± 1.3
331.9 K, 10000 kPa, Bellows volumetry | 1412.5 ± 1.8
331.9 K, 20000 kPa, Bellows volumetry | 1420.1 ± 1.8
331.9 K, 30000 kPa, Bellows volumetry | 1427.4 ± 1.8
331.9 K, 40000 kPa, Bellows volumetry | 1434.5 ± 1.8
331.9 K, 50000 kPa, Bellows volumetry | 1441.1 ± 1.8
331.9 K, 60000 kPa, Bellows volumetry | 1447.6 ± 1.8
331.9 K, 70000 kPa, Bellows volumetry | 1453.6 ± 1.8
331.9 K, 80000 kPa, Bellows volumetry | 1459.5 ± 1.8
331.9 K, 90000 kPa, Bellows volumetry | 1464.9 ± 1.8
331.9 K, 100000 kPa, Bellows volumetry | 1470.5 ± 1.8
331.9 K, 110000 kPa, Bellows volumetry | 1476 ± 1.8
331.9 K, 120000 kPa, Bellows volumetry | 1481.1 ± 1.8
331.9 K, 130000 kPa, Bellows volumetry | 1486.2 ± 1.8
331.9 K, 140000 kPa, Bellows volumetry | 1491.2 ± 1.8
331.9 K, 150000 kPa, Bellows volumetry | 1495.9 ± 1.8
331.9 K, 160000 kPa, Bellows volumetry | 1500.5 ± 1.8
331.9 K, 170000 kPa, Bellows volumetry | 1505.2 ± 1.8
331.9 K, 180000 kPa, Bellows volumetry | 1509.6 ± 1.8
331.9 K, 190000 kPa, Bellows volumetry | 1513.9 ± 1.8
331.9 K, 200000 kPa, Bellows volumetry | 1518.3 ± 1.8
333.15 K, 101.33 kPa, Vibrating tube method | 1403.4 ± 1.3
343.15 K, 101.33 kPa, Vibrating tube method | 1394 ± 1.3
352 K, 10000 kPa, Bellows volumetry | 1394 ± 1.8
352 K, 20000 kPa, Bellows volumetry | 1402.4 ± 1.8
352 K, 30000 kPa, Bellows volumetry | 1410 ± 1.8
352 K, 40000 kPa, Bellows volumetry | 1417.4 ± 1.8
352 K, 50000 kPa, Bellows volumetry | 1424.3 ± 1.8
352 K, 60000 kPa, Bellows volumetry | 1431.2 ± 1.8
352 K, 70000 kPa, Bellows volumetry | 1437.5 ± 1.8
352 K, 80000 kPa, Bellows volumetry | 1443.8 ± 1.8
352 K, 90000 kPa, Bellows volumetry | 1449.5 ± 1.8
352 K, 100000 kPa, Bellows volumetry | 1455.3 ± 1.8
352 K, 110000 kPa, Bellows volumetry | 1460.8 ± 1.8
352 K, 120000 kPa, Bellows volumetry | 1466.3 ± 1.8
352 K, 130000 kPa, Bellows volumetry | 1471.5 ± 1.8
352 K, 140000 kPa, Bellows volumetry | 1476.5 ± 1.8
352 K, 150000 kPa, Bellows volumetry | 1481.4 ± 1.8
352 K, 160000 kPa, Bellows volumetry | 1486.3 ± 1.8
352 K, 170000 kPa, Bellows volumetry | 1491 ± 1.8
352 K, 180000 kPa, Bellows volumetry | 1495.8 ± 1.8
352 K, 190000 kPa, Bellows volumetry | 1500.2 ± 1.8
352 K, 200000 kPa, Bellows volumetry | 1504.7 ± 1.8
353.15 K, 101.33 kPa, Vibrating tube method | 1384.8 ± 1.3
363.15 K, 101.33 kPa, Vibrating tube method | 1375.6 ± 1.3
372.2 K, 10000 kPa, Bellows volumetry | 1376.1 ± 1.8
372.2 K, 20000 kPa, Bellows volumetry | 1384.9 ± 1.8
372.2 K, 30000 kPa, Bellows volumetry | 1393.3 ± 1.8
372.2 K, 40000 kPa, Bellows volumetry | 1401.1 ± 1.8
372.2 K, 50000 kPa, Bellows volumetry | 1408.4 ± 1.8
372.2 K, 60000 kPa, Bellows volumetry | 1415.5 ± 1.8
372.2 K, 70000 kPa, Bellows volumetry | 1422.1 ± 1.8
372.2 K, 80000 kPa, Bellows volumetry | 1428.4 ± 1.8
372.2 K, 90000 kPa, Bellows volumetry | 1434.4 ± 1.8
372.2 K, 100000 kPa, Bellows volumetry | 1440.3 ± 1.8
372.2 K, 110000 kPa, Bellows volumetry | 1446.2 ± 1.8
372.2 K, 120000 kPa, Bellows volumetry | 1452 ± 1.8
372.2 K, 130000 kPa, Bellows volumetry | 1457.4 ± 1.8
372.2 K, 140000 kPa, Bellows volumetry | 1462.6 ± 1.8
372.2 K, 150000 kPa, Bellows volumetry | 1467.8 ± 1.8
372.2 K, 160000 kPa, Bellows volumetry | 1472.5 ± 1.8
372.2 K, 170000 kPa, Bellows volumetry | 1477.5 ± 1.8
372.2 K, 180000 kPa, Bellows volumetry | 1482.1 ± 1.8
372.2 K, 190000 kPa, Bellows volumetry | 1487 ± 1.8
372.2 K, 200000 kPa, Bellows volumetry | 1491.4 ± 1.8
373.15 K, 101.33 kPa, Vibrating tube method | 1366.7 ± 1.3
392.4 K, 10000 kPa, Bellows volumetry | 1358.5 ± 1.8
392.4 K, 20000 kPa, Bellows volumetry | 1367.8 ± 1.8
392.4 K, 30000 kPa, Bellows volumetry | 1376.7 ± 1.8
392.4 K, 40000 kPa, Bellows volumetry | 1385 ± 1.8
392.4 K, 50000 kPa, Bellows volumetry | 1392.8 ± 1.8
392.4 K, 60000 kPa, Bellows volumetry | 1400.2 ± 1.7
392.4 K, 70000 kPa, Bellows volumetry | 1407.2 ± 1.7
392.4 K, 80000 kPa, Bellows volumetry | 1414 ± 1.7
392.4 K, 90000 kPa, Bellows volumetry | 1420.7 ± 1.8
392.4 K, 100000 kPa, Bellows volumetry | 1426.6 ± 1.8
392.4 K, 110000 kPa, Bellows volumetry | 1432.6 ± 1.8
392.4 K, 120000 kPa, Bellows volumetry | 1438.2 ± 1.8
392.4 K, 130000 kPa, Bellows volumetry | 1443.8 ± 1.8
392.4 K, 140000 kPa, Bellows volumetry | 1449.2 ± 1.8
392.4 K, 150000 kPa, Bellows volumetry | 1454.4 ± 1.8
392.4 K, 160000 kPa, Bellows volumetry | 1459.3 ± 1.8
392.4 K, 170000 kPa, Bellows volumetry | 1464.5 ± 1.8
392.4 K, 180000 kPa, Bellows volumetry | 1469.2 ± 1.8
392.4 K, 190000 kPa, Bellows volumetry | 1474.1 ± 1.8
392.4 K, 200000 kPa, Bellows volumetry | 1478.8 ± 1.8
412.1 K, 10000 kPa, Bellows volumetry | 1341.1 ± 1.8
412.1 K, 20000 kPa, Bellows volumetry | 1351 ± 1.8
412.1 K, 30000 kPa, Bellows volumetry | 1360.4 ± 1.8
412.1 K, 40000 kPa, Bellows volumetry | 1369.2 ± 1.8
412.1 K, 50000 kPa, Bellows volumetry | 1377.5 ± 1.7
412.1 K, 60000 kPa, Bellows volumetry | 1385.1 ± 1.7
412.1 K, 70000 kPa, Bellows volumetry | 1392.6 ± 1.7
412.1 K, 80000 kPa, Bellows volumetry | 1399.6 ± 1.7
412.1 K, 90000 kPa, Bellows volumetry | 1406.1 ± 1.8
412.1 K, 100000 kPa, Bellows volumetry | 1412.5 ± 1.8
412.1 K, 110000 kPa, Bellows volumetry | 1418.8 ± 1.8
412.1 K, 120000 kPa, Bellows volumetry | 1424.8 ± 1.8
412.1 K, 130000 kPa, Bellows volumetry | 1430.5 ± 1.8
412.1 K, 140000 kPa, Bellows volumetry | 1436.2 ± 1.8
412.1 K, 150000 kPa, Bellows volumetry | 1441.4 ± 1.8
412.1 K, 160000 kPa, Bellows volumetry | 1446.8 ± 1.8
412.1 K, 170000 kPa, Bellows volumetry | 1451.9 ± 1.8
412.1 K, 180000 kPa, Bellows volumetry | 1456.9 ± 1.8
412.1 K, 190000 kPa, Bellows volumetry | 1461.6 ± 1.8
412.1 K, 200000 kPa, Bellows volumetry | 1466.6 ± 1.8
